In patent publication US20260217668A1, “CRYSTALLINE FORMS OF A LPA1 ANTAGONIST” (Bristol-Myers Squibb Company, priority 2022, published 2026):

Test: Moisture sorption isotherms
Format: physicochemical
Details: moisture sorption at 25° C., 4 to 95% RH (FIG. 4)
Protocol: Moisture sorption isotherms were collected in a TA Instrument VTI-SA+ Vapor Sorption Analyzer using approximately 270 mg of sample in a 250 μL ceramic pan. The sample was dried at 30° C. until the loss rate of 0.005 wt %/min was obtained for 10 minutes. The sample was tested at 25° C. and 4, 5, 15, 25, 35, 45, 50, 65, 75, 85, and 95% RH. Equilibration at each RH was reached when the rate of 0.01 wt %/min for 35 minutes was achieved or a maximum of 600 minutes.

For `CCCN(C)C(=O)OCc1c(-c2ccc(O[C@H]3CCC[C@H](C(=O)O)C3)c(C)n2)nnn1C` [Form A], the hygroscopicity was “non-hygroscopicity”.
